The results in this text go back to patent publication US3997527A, “Aminomethylarylmethylpenicillin derivatives” (Pfizer Inc., priority 1976, dated 1976).

Converted amounts (≈) assume the structure as drawn. Where only a bound is given, the exact number is not on record here.

The MIC is the smallest concentration in the dilution series that meets the test's criterion for growth inhibition. Low values mean greater potency, high ones weaker potency.

Common to all, as to format: cell-based
The test system of one experiment is Entero. aero. 55A004. In words: In vitro antibacterial activity (MIC), Entero. aero. 55A004. As to conditions: nutrient broth. An excerpt: (§1) As has been previously mentioned, the penicillins of the present invention are broad spectrum antibiotics which are, unlike many penicillin analogs, highly antagonistic toward gram-negative microorganisms, in particular E. coli and Klebsiella. This unusual activity against certain gram-negative organisms may be attributed to the positioning of the aminomethyl substituent adjacent to the linking amide moiety. The marked effectiveness of this positioning can be readily seen in an antibacterial comparison of 6-(o-aminomethylphenylacetamido)penicillanic acid (o-AMP), a preferred compound of the present invention and 6-(p-aminomethylphenylacetamido)penicillanic acid (p-AMP), a compound of the previously-mentioned British Pat. 1,057,029.

A further experiment relates to S. pyogenes 020803. In words: In vitro antibacterial activity (MIC), S. pyogenes 020803. The following applies: Streptococcus pyogenes, nutrient broth.
Source text: as §1

For the next experiment, the system named is E. coli 51A266. The experiment is described as follows: In vitro antibacterial activity (MIC), E. coli 51A266. As to conditions: Escherichia coli, nutrient broth.
Source text: as §1

Another experiment concerns Past. mult. 59A001. The experiment is described as follows: In vitro antibacterial activity (MIC), Past. mult. 59A001. The following applies: nutrient broth.
Source text: as §1

For a further experiment, the system named is Kleb. pneumoniae 53A009. In words: In vitro antibacterial activity (MIC), Kleb. pneumoniae 53A009. The following applies: Klebsiella pneumoniae, nutrient broth.
Source text: as §1

For a further experiment, the system named is E. coli 51A215. In words: In vitro antibacterial activity (MIC), E. coli 51A215. As to conditions: Escherichia coli, nutrient broth.
Source text: as §1

A further experiment deals with E. coli 51A002. In words: In vitro antibacterial activity (MIC), E. coli 51A002. The following applies: Escherichia coli, nutrient broth.
Source text: as §1

The test system of a further experiment is S. aureus 01A005. The experiment is described as follows: In vitro antibacterial activity (MIC), S. aureus 01A005. The following applies: Staphylococcus aureus, nutrient broth.
Source text: as §1

The next experiment concerns Salm. typhm. 530013. The experiment is described as follows: In vitro antibacterial activity (MIC), Salm. typhm. 530013. The following applies: nutrient broth.
Source text: as §1

The next experiment relates to S. aureus 01A052. The experiment is described as follows: In vitro antibacterial activity (MIC), S. aureus 01A052. The following applies: Staphylococcus aureus, nutrient broth.
Source text: as §1

In the case of `CC1(C)S[C@@H]2C(NC(=O)Cc3ccc(CN)cc3)C(=O)N2[C@H]1C(=O)O` (some centres unmarked) [p-AMP, 6-(p-aminomethylphenylacetamido)penicillanic acid], the minimal inhibitory concentration (MIC) was more than 200 µg/mL against Entero. aero. 55A004; 0.39 µg/mL (≈ 1.07 µM) in the experiment with S. pyogenes 020803; 50 µg/mL (≈ 138 µM) against E. coli 51A266; 0.39 µg/mL (≈ 1.07 µM) in the experiment with Past. mult. 59A001; 50 µg/mL (≈ 138 µM) in the experiment on Kleb. pneumoniae 53A009; 6.25 µg/mL (≈ 17.2 µM) against E. coli 51A215. For the same compound, the minimal inhibitory concentration (MIC) was more than 200 µg/mL against E. coli 51A002, 200 µg/mL (≈ 550 µM) with S. aureus 01A005, 12.5 µg/mL (≈ 34.4 µM) with Salm. typhm. 530013 and 200 µg/mL (≈ 550 µM) against S. aureus 01A052.

On to `CC1(C)S[C@@H]2C(NC(=O)Cc3ccccc3CN)C(=O)N2[C@H]1C(=O)O` (some centres unmarked) [o-AMP, 6-(o-aminomethylphenylacetamido)penicillanic acid], for which the minimum inhibitory concentration (MIC) with Entero. aero. 55A004 is 1.56 µg/mL (≈ 4.29 µM); in the experiment with S. pyogenes 020803, less than 0.1 µg/mL; against E. coli 51A266, 3.12 µg/mL (≈ 8.58 µM); in the experiment on Past. mult. 59A001, 0.2 µg/mL (≈ 0.55 µM); in the experiment on Kleb. pneumoniae 53A009 it was 3.12 µg/mL (≈ 8.58 µM); against E. coli 51A215 it was 6.25 µg/mL (≈ 17.2 µM). In addition, the minimal inhibitory concentration (MIC) against E. coli 51A002 was 200 µg/mL (≈ 550 µM); in the experiment on S. aureus 01A005, 0.2 µg/mL (≈ 0.55 µM); against Salm. typhm. 530013, 3.12 µg/mL (≈ 8.58 µM); in the experiment with S. aureus 01A052, 1.56 µg/mL (≈ 4.29 µM).
